# Target: T1, Prostaglandin E synthase (Homo sapiens, UniProt O14684)
# T1 sequence (O14684 whole entry): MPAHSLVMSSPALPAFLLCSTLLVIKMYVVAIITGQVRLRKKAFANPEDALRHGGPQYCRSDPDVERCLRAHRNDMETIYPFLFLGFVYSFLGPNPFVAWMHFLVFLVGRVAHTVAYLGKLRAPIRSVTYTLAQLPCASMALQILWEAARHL
# Assay: Inhibition Assay: mPGES-1 microsome fractions were prepared from CHO-K1 cells transiently transfected with plasmid encoding the human mPGES-1cDNA. Microsomes were diluted with potassium phosphate buffer containing reduced glutathione (pH7.4), and DMSO containing test compound or DMSO alone was added (such that DMSO final concentration would be 1% in each) and incubated at 4° C. for 20 minutes. Then, the enzymatic reactions were initiated by the addition of PGH2 substrate (final concentration 1 μM) and incubated at 4° C. for 60 seconds. The reaction was terminated by the addition of a citrate solution (final citrate concentration 50 mM) containing ferric chloride (final concentration 1 mg/mL). PGE2 production in the enzyme reaction aliquot was measured using HTRF kit (Cisbio International, catalogue #62P2APEC).
# Format: cell-based
smiles,measurement,value
O=C(Nc1cc(C(=O)NCc2ccccc2C(F)(F)F)c2nc[nH]c2c1)c1ccccc1C(F)(F)F,IC50,12.7 nM

# From ChEMBL document CHEMBL3886430, “Heterocyclic derivative and pharmaceutical drug” (2015)
